Measured values published in patent US8470889B2 (TRT Pharma Inc., priority 2008, dated 2013).
Substitutions are numbered along the chain they refer to.

Legend:
[1] = target: T1, T877A mutated AR (Homo sapiens, UniProt P10275, T878A); assay: Luciferase assay for AR transactivation, T877A AR, PC-3 cells; assay type: cell-based
T1 sequence (P10275 1-920 T878A): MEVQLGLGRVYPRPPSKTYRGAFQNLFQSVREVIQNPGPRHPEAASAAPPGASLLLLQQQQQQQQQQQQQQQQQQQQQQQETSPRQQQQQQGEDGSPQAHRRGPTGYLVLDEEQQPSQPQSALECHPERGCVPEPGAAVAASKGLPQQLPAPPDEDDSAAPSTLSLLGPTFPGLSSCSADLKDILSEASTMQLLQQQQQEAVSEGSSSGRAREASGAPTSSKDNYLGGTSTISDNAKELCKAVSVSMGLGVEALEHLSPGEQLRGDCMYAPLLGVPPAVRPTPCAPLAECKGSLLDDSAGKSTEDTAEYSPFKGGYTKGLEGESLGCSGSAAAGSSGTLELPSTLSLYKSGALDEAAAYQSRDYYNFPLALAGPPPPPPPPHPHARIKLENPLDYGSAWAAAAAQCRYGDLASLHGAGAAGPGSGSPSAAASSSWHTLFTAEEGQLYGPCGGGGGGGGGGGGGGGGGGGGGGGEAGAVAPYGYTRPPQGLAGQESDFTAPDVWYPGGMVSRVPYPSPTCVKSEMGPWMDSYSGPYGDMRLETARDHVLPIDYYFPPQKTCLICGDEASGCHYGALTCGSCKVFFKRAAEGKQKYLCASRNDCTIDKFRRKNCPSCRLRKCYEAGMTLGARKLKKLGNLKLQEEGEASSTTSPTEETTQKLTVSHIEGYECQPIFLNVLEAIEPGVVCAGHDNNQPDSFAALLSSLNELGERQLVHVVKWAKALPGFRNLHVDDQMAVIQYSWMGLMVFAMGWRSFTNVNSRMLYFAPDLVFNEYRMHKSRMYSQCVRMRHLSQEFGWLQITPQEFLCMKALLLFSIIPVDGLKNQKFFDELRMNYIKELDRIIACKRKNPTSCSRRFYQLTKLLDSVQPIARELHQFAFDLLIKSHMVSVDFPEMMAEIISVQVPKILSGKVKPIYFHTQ
Procedure: (§1) PC-3 cells were transiently transfected with pCMV-MMTV-Luc, Renilla null luciferase and AR expressing plasmids. The cells were treated with 0.1 nM DHT with and without test compound for 24 hr. Relative luciferase activity was determined by dual luciferase assay kit (Promega), standardized to Renilla luciferase control and normalized to 0.1 nM DHT without test compound (100%).
(§2) After 16 h, the cells were treated with 0.1 nM of DHT and test compounds at the designated concentration. After further 24 h, the cells were lysed in 100 μL/well passive lysis buffer, and 20 μL of the cell lysates was used for detection of the luciferase activity using Dual Luciferase Assay System (Promega). All experiments were run in triplicate. Relative luciferase activity is determined as the ratio of inducible firefly luciferase luminescence divided by the luminescence of the renilla luciferase control normalized to 0.1 nM DHT without test compounds.
(§3) The potency of antagonistic activity: ++>+.

[2] = system: MDA PCa 2b cells; assay: MTT cell growth inhibition, MDA PCa 2b;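 further: MDA PCa 2b prostate cancer cells in BRFF-HPC1 with 20% FBS, exposed to compounds for 72 h, viable-cell MTT formazan read as absorbance at 600 nm, 0.5% DMSO vehicle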
Procedure: (§4) MDA PCa 2b was seeded at the same density in medium BRFF-HPC1 (Athena Enzyme Systems, Baltimore, Md., USA) supplemented with 20% FBS. After overnight incubation, the medium was changed to a fresh medium containing different concentrations of test compounds diluted from stock DMSO solution. The final concentration of DMSO is 0.5%. After 72 h of incubation with test compounds, 20 μL of 3-(4,5-dimethyl thiazol-2-yl)-2,5-diphenyltetrazolium bromide (MTT) solution (5 mg/mL in PBS) were added to each well and incubated further for 2 h. Next, the supernatant was aspirated and the MTT formazan formed by metabolically viable cells was dissolved in 100 μL of isopropanol. The plates were mixed for 30 min, and the absorbance was measured at 600 nm on a plate reader (FLUOstar OPTIMA, BMG LabTech). All samples were in triplicate. The IC50 values were determined from dose-response curves by nonlinear regression using PRISM v5.00 (GraphPad Software Inc, La Jolla, Calif., USA).
(§5) The in vitro cytotoxicity of 1-20 were evaluated by MTT assays in a panel of prostate cancer cell lines, including LNCaP, MDA PCa 2b, 22Rv1, C4-2B and PC-3.

[3] = system: PC-3 cells; assay: MTT cell growth inhibition, PC-3; conditions: Part D table, 72 hours, I.A. = Inactive
[4] = target: T2, wild-type human AR (Homo sapiens, UniProt P10275); assay: Luciferase assay for AR transactivation, wild-type AR, PC-3 cells; assay type: cell-based; set-up: Antiandrogenic activity evaluated by luciferase assay in PC-3 cells WT: key to the marks not given beside the values; conditions: test compound 1 μM, 0.1 nM DHT
T2 construct: utilizing plasmid expressing a full length of AR; expressed in transfected cells; host or cells: PC-3 cells, plasmid pCMV-AR-wt
T2 sequence (P10275 1-920): T1 sequence (P10275 1-920 T878A) with A878T
Procedure: as §1, §2, §3
PC-3 cells were transiently transfected with plasmid expressing wild type human AR and MMTV-Luc. […] RLU, relative luciferase units, were normalized to that of 0.1 nM DHT alone.

[5] = system: LNCaP cells; assay: MTT cell growth inhibition, LNCaP;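 further: MTT formazan absorbance at 600 nm read after 72 h of compound exposure, IC50 fitted by nonlinear regression of dose-response curves, samples run in triplicate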; conditions: Part D table, 72 hours, I.A. = Inactive
[6] = target: T3, H874Y mutated AR (Homo sapiens, UniProt P10275, H875Y); assay: Luciferase assay for AR transactivation, H874Y AR, PC-3 cells; assay type: cell-based; conditions: test compound 1 μM, 0.1 nM DHT
T3 sequence (P10275 1-920 H875Y): T1 sequence (P10275 1-920 T878A) with H875Y, A878T
Procedure: as §1, §2, §3

[7] = system: 22Rv1 cells; assay: MTT cell growth inhibition, 22Rv1
Procedure: as §4, §5

[8] = system: C4-2B cells; assay: MTT cell growth inhibition, C4-2B;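 further: cells treated with a dilution series for 72 h, then MTT added and absorbance read at 600 nm, IC50 fitted from dose-response curves by nonlinear regression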; conditions: Part D table, 72 hours, I.A. = Inactive
Procedure: as §4, §5

[9] = 72 hrs, concentrations up to 50 μM, FIG. 2

CC(C)(O)C(=O)Nc1ccc([N+](=O)[O-])c(C(F)(F)F)c1 [OHF, hydroxyflutamide, reference compound]
agonist activity on T877A AR ([1]; absence of DHT, PC-3 cells): activated | Antiandrogenic activity evaluated by luciferase assay in PC-3 cells T877A ([1]; test compound 1 μM, 0.1 nM DHT): Agonist | growth inhibitory effect on PCa 2b cells [2, 9]: resistant | IC50 ([2]; read-out: Cytotoxicity in prostate cancer cell lines IC50 (μM), PCa-2b, Part D table, MTT, 72 hours): > 50 µM | Cytotoxicity in prostate cancer cell lines IC50 (μM), PC-3 [3]: I.A. | Antiandrogenic activity evaluated by luciferase assay in PC-3 cells WT [4]: ++ | Cytotoxicity in prostate cancer cell lines IC50 (μM), LNCaP [5]: I.A. | Antiandrogenic activity evaluated by luciferase assay in PC-3 cells H874Y [6]: + | growth inhibitory effect on 22Rv1 cells [7, 9]: resistant | IC50 ([7]; read-out: Cytotoxicity in prostate cancer cell lines IC50 (μM), 22Rv1, Part D table, MTT, 72 hours): > 50 µM | Cytotoxicity in prostate cancer cell lines IC50 (μM), C4-2B [8]: I.A.
